Assay results as given in patent US20240158406A1, “PIPERAZINE DERIVATIVE AND USE THEREOF IN MEDICINE” (CHENGDU BAIYU PHARMACEUTICAL CO., LTD., priority 2021, published 2024).
pIC50: −log10 of the molar value.

Assays:
[1] = biological target: PARP7 (Homo sapiens (Human), UniProt Q7Z3E1); assay: Enzymatic biochemical assay of PARP (chemiluminescence detection kit), PARP7; settings: read-out: Inhibitory activity against PAPR7 (IC50)
Method: This assay adopted PARP1, TNKS1, TNKS2, PARP7 and PARP14 chemiluminescence detection kits (BPS, Cat No. 80551/80552/80573/80578/79729/80568) for enzymatic biochemical assay of PARP. The specific scheme was as follows: the 1× histone mixture was added to a 96-well plate at 50 μL per well, and the plate was incubated overnight at 4° C. The next day, after the plate was washed with PBST, 200 μL of blocking buffer per well was added, and the plate was incubated for 90 min. After the plate was washed with PBST again, 5 μL of inhibitor, 20 μL of 1×PARP buffer and 25 μL of […] were added to each well, and the plate was incubated at room temperature for 30 min. After the plate was washed with PBST, 100 μL of Elisa ECL substrate A and B mixture was added to each well, chemiluminescence value was immediately read using a plate reader, and IC50 values were calculated.

[2] = system: NCI-H1373 cells; assay: NCI-H1373 cell proliferation inhibition assay; assay type: cell-based; settings: Homo sapiens, NCI-H1373, 144 h; 6 days of incubation, Cell Titer Blue
Method: Human lung adenocarcinoma cells NC-H1373 (ATCC, CRL-5866M) were cultured in a cell incubator at 37° C. and 5% CO2 using RPMI-1640 medium containing 10% FBS and 1% […]. The cells in the logarithmic growth phase were counted by digestion and inoculated in a 96-well plate at 1500 NCI-H1373 per well, and the plate was placed in an incubator overnight. The next day, test compounds were formulated in 10 mM stock solution by using DMSO and 3-fold diluted in gradient from a maximum concentration of 10 μM by using RPMI-1640 medium, and 10 gradient concentrations were set with 2 parallel wells per concentration gradient. After 6 days of incubation, 100 μL of Cell Titer Blue working solution was added to each well and the chemiluminescence value was read in a microplate reader. IC50 was calculated using GraphPad Prism7.0 software.

[3] = Metabolic stability in liver microsome; assay type: in vitro ADME; settings: liver microsomes; 0.5 mg/mL CD1 mouse liver microsome, 0.5 μM test compound, NADPH and UDPGA, 37° C.
Method: 0.5 mg/mL CD1 mouse liver microsome solution, 0.5 μM test compound, 1.0 mM reduced nicotinamide adenine dinucleotide phosphate (NADPH), and 1.0 mM uridine diphosphate-A-glucuronic acid (UDPGA) were added to the incubation plate and mixed, and the plate was incubated at 37° C. for 0, 30, 60, 120 min separately. The positive control group was set as 0.5 μM CYP3A4 probe substrate-testosterone and 0.5 μM UGT probe substrate-7-hydroxycoumarin incubated with microsomes for 0 and 120 min in the presence of NADPH and UDPGA; the negative control group (NC) was set as the test substance incubated with microsomes for 0 and 120 min without any coenzyme. After the reaction was terminated by adding pre-cooled methanol at each termination time, the reaction mixture was centrifuged at 4000 rpm for 10 min, the supernatant was taken and the remaining amount of the parent drug in the sample was measured by LC-MS/MS, the results of which are shown in Table 4.

[4] = system: MDR1; assay: MDCKII-MDR1 cell permeability assay; assay type: in vitro ADME; settings: dog, MDCK-MDR1, 1 μM test compound; for Papp A→B at 2 h, 1 μM: apical to basolateral; for Papp B→A at 2 h, 1 μM: basolateral to apical
Method: 50 μL of MDCKII-MDR1 cell suspension with a density of 1.56×10^6 cells/mL was seeded into a Transwell well of a 96-well plate, and the plate was cultured in a cell incubator at 37° C. in 5% CO2. […] The medium in Transwell was discarded, and HBSS equilibration solution was added and incubated at 37° C. for 30 min. Subsequently, an apical to basolateral drug transport rate assay was performed by adding 1 μM test compound solution to the Transwell AB side and a blank equilibration solution to the BL side. When the basolateral to apical drug transport rate assay was performed, the operation steps were reversed. Subsequently, the cells were placed in an incubator for 2 h. After the incubation, samples were taken from the basolateral and apical respectively, and after centrifugation, the supernatant was subjected to LC-MS/MS analysis, and the apparent permeability coefficient (Papp) was calculated, the results of which are shown in Table 5.

Chain of PARP7 (Q7Z3E1 whole entry): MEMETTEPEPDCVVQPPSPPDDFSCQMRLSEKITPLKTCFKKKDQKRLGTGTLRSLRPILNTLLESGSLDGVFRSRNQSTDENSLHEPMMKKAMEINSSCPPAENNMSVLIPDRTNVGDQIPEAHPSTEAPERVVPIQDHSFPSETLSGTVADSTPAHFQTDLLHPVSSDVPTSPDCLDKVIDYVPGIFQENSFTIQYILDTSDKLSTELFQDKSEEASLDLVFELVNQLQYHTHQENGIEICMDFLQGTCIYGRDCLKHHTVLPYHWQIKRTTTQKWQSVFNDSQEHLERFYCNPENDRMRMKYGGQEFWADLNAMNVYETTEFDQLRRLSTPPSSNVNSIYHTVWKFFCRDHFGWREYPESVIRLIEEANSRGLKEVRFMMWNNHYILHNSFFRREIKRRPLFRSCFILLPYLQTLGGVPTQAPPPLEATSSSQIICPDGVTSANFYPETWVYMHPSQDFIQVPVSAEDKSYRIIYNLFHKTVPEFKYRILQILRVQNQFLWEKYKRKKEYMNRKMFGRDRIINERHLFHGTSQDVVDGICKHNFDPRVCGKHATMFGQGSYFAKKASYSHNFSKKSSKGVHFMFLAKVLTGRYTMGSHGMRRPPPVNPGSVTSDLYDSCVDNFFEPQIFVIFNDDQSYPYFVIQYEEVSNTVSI

| pIC50 [1] | pIC50 [2] | SMILES | other results |
| --- | --- | --- | --- |
| > 8.00 | > 7.30 | C[C@@H](COCc1cc2n(n1)CCN(c1cnc(C(F)(F)F)cn1)C2)Nc1cn[nH]c(=O)c1C(F)(F)F [Compound 5, (S)-4-(trifluoromethyl)-5-((1-((5-(5-(trifluoromethyl)pyrazin-2-yl)-4,5,6,7-tetrahydropyrazolo[1,5-a]pyrazin-2-yl)methoxy)propan-2-yl)amino)pyridazin-3(2H)-one] | – |
| – | > 7.30 | [2H]c1c(COC[C@H](C)Nc2cn[nH]c(=O)c2C(F)(F)F)nn2c1CN(c1ncc(C(F)(F)F)cn1)CC2 [Compound 25, (S)-4-(trifluoromethyl)-5-((1-((5-(5-(trifluoromethyl)pyrimidin-2-yl)-4,5,6,7-tetrahydropyrazolo[1,5-a]pyrazin-2-yl-d)methoxy)propan-2-yl)amino)pyridazin-3(2H)-one] | – |
| > 8.00 | > 7.30 | C[C@H](OC[C@H](C)Nc1cn[nH]c(=O)c1C(F)(F)F)c1cc2n(n1)CCN(c1ncc(C(F)(F)F)cn1)C2 [Compound 3-I, 4-(Trifluoromethyl)-5-(((S)-1-((S)-1-(5-(5-(trifluoromethyl)pyrimidin-2-yl)-4,5,6,7-tetrahydropyrazolo[1,5-a]pyrazin-2-yl)ethoxy)propan-2-yl)amino)pyridazin-3(2H)-one] | – |
| – | > 7.30 | C[C@@H](COCc1nn2c(c1C(F)(F)F)CN(c1ncc(C(F)(F)F)cn1)CC2)Nc1cn[nH]c(=O)c1C(F)(F)F [Compound 19, (S)-4-(trifluoromethyl)-5-((1-((3-(trifluoromethyl)-5-(5-(trifluoromethyl)pyrimidin-2-yl)-4,5,6,7-tetrahydropyrazolo[1,5-a]pyrazin-2-yl)methoxy)propan-2-yl)amino)pyridazin-3(2H)-one] | – |
| – | > 7.30 | [2H]C([2H])(OC[C@H](C)Nc1cn[nH]c(=O)c1C(F)(F)F)c1cc2n(n1)CCN(c1ncc(C(F)(F)F)cn1)C2([2H])[2H] [Compound 2, (S)-4-(trifluoromethyl)-5-((1-((5-(5-(trifluoromethyl)pyrimidin-2-yl)-4,5,6,7-tetrahydropyrazolo[1,5-a]pyrazin-2-yl-4,4-d2)methoxy-d2)propan-2-yl)amino)pyridazin-3(2H)-one] | – |
| – | 7.00 to 7.30 | C[C@@H](COCc1nn2c(c1Cl)CN(c1cnc(C(F)(F)F)cn1)CC2)Nc1cn[nH]c(=O)c1C(F)(F)F [Compound 14, (S)-5-((1-((3-chloro-5-(5-(trifluoromethyl)pyrazin-2-yl)-4,5,6,7-tetrahydropyrazolo[1,5-a]pyrazin-2-yl)methoxy)propan-2-yl)amino)-4-(trifluoromethyl)pyridazin-3(2H)-one] | – |
| – | > 7.30 | C[C@@H](COCc1nc2n(n1)CCN(c1ccc(C(F)(F)F)cn1)C2)Nc1cn[nH]c(=O)c1C(F)(F)F [Compound 26, (S)-4-(trifluoromethyl)-5-((1-((7-(5-(trifluoromethyl)pyridin-2-yl)-5,6,7,8-tetrahydro[1,2,4]triazolo[1,5-a]pyrazin-2-yl)methoxy)propan-2-yl)amino)pyridazin-3(2H)one] | half-life at 0.5 μM [3]: > 1.67 h |
| – | 7.00 to 7.30 | C[C@@H](COCc1cc2n(n1)CCN(c1ccc(C(F)(F)F)cn1)C2=O)Nc1cn[nH]c(=O)c1C(F)(F)F [Compound 11, (S)-2-((2-((6-oxo-5-(trifluoromethyl)-1,6-dihydropyridazin-4-yl)amino)propoxy)methyl)-5-(5-(trifluoromethyl)pyridin-2-yl)-6,7-dihydropyrazolo[1,5-a]pyrazin-4(5H)-one] | half-life at 0.5 μM [3]: > 1.67 h |
| – | 7.00 to 7.30 | C[C@@H](COCc1cc2n(n1)CCN(c1ncc(C(F)(F)F)s1)C2)Nc1cn[nH]c(=O)c1C(F)(F)F [Compound 30] | – |
| – | 7.00 to 7.30 | [2H]C([2H])(OC[C@H](C)Nc1cn[nH]c(=O)c1C(F)(F)F)c1cc2n(n1)CCN(c1ccc(C#N)cn1)C2([2H])[2H] [Compound 23, (S)-6-(2-((2-((6-oxo-5-(trifluoromethyl)-1,6-dihydropyridazin-4-yl)amino)propoxy)methyl-d2)-6,7-dihydropyrazolo[1,5-a]pyrazin-5(4H)-yl-4,4-d2)nicotinonitrile] | – |
| > 8.00 | > 7.30 | [2H]C([2H])(OC[C@H](C)Nc1cn[nH]c(=O)c1C(F)(F)F)c1cc2n(n1)CCN(c1cnc(C(F)(F)F)cn1)C2([2H])[2H] [Compound 21, (S)-4-(trifluoromethyl)-5-((1-((5-(5-(trifluoromethyl)pyrazin-2-yl)-4,5,6,7-tetrahydropyrazolo[1,5-a]pyrazin-2-yl-4,4-d2)methoxy-d2)propan-2-yl)amino)pyridazin-3(2H)-one] | – |
| – | > 7.30 | CSc1cnc(N2CCn3nc(COC[C@H](C)Nc4cn[nH]c(=O)c4C(F)(F)F)cc3C2)nc1 [Compound 39, (S)-5-((1-((5-(5-(methylthio)pyrimidin-2-yl)-4,5,6,7-tetrahydropyrazolo[1,5-a]pyrazin-2-yl)methoxy)propan-2-yl)amino)-4-(trifluoromethyl)pyridazin-3(2H)-one] | efflux ratio at 2 h, 1 μM [4]: 4.09; Papp A→B at 2 h, 1 μM [4]: 8.82 ×10⁻⁶ cm/s; Papp B→A at 2 h, 1 μM [4]: 35.5 ×10⁻⁶ cm/s |
| 7.30 to 8.00 | > 7.30 | C[C@@H](COCc1nc2n(n1)CCN(c1ncc(C(F)(F)F)cn1)C2)Nc1cn[nH]c(=O)c1C(F)(F)F [Compound 9, (S)-4-(trifluoromethyl)-5-((1-((7-(5-(trifluoromethyl)pyrimidin-2-yl)-5,6,7,8-tetrahydro-[1,2,4]triazolo[1,5-a]pyrazin-2-yl)methoxy)propan-2-yl)amino)pyridazin-3(2H)-one] | half-life at 0.5 μM [3]: > 0.5 h |
| 7.30 to 8.00 | > 7.30 | C[C@@H](COCc1nn2c(c1Cl)CN(c1ncc(C(F)(F)F)cn1)CC2)Nc1cn[nH]c(=O)c1C(F)(F)F [Compound 13, (S)-5-((1-((3-chloro-5-(5-(trifluoromethyl)pyrimidin-2-yl)-4,5,6,7-tetrahydropyrazolo[1,5-a]pyrazin-2-yl)methoxy)propan-2-yl)amino)-4-(trifluoromethyl)pyridazin-3(2H)-one] | efflux ratio at 2 h, 1 μM [4]: 2.28; Papp A→B at 2 h, 1 μM [4]: 6.67 ×10⁻⁶ cm/s; Papp B→A at 2 h, 1 μM [4]: 14.8 ×10⁻⁶ cm/s |
| – | 7.00 to 7.30 | O=c1[nH]ncc(N2CCC[C@H]2COCc2nc3n(n2)CCN(c2ncc(C(F)(F)F)cn2)C3)c1C(F)(F)F [Compound 28, (S)-4-(trifluoromethyl)-5-(2-(((7-(5-(trifluoromethyl)pyrimidin-2-yl)-5,6,7,8-tetrahydro-[1,2,4]triazolo[1,5-a]pyrazin-2-yl)methoxy)methyl)pyrrolidin-1-yl)pyridazin-3(2H)-one] | – |
| – | – | CC[C@@H](COCc1nc2n(n1)CCN(c1ncc(C(F)(F)F)cn1)C2)Nc1cn[nH]c(=O)c1C(F)(F)F [Compound 37, (S)-4-(trifluoromethyl)-5-((1-((7-(5-(trifluoromethyl)pyrimidin-2-yl)-5,6,7,8-tetrahydro-[1,2,4]triazolo[1,5-a]pyrazin-2-yl)methoxy)butan-2-yl)amino)pyridazin-3(2H)-one] | half-life at 0.5 μM [3]: > 1.67 h |
| 7.00 to 7.30 | – | C[C@@H](CO[C@H](C)c1cc2n(n1)CCN(c1ncc(C(F)(F)F)cn1)C2)Nc1cn[nH]c(=O)c1C(F)(F)F [Compound 3-II, 4-(Trifluoromethyl)-5-(((S)-1-((R)-1-(5-(5-(trifluoromethyl)pyrimidin-2-yl)-4,5,6,7-tetrahydropyrazolo[1,5-a]pyrazin-2-yl)ethoxy)propan-2-yl)amino)pyridazin-3(2H)-one] | – |
